Reference: patent US9115148B2, “Spirocyclic derivatives as histone deacetylase inhibitors” (DAC S.R.L., priority 2008, dated 2015)

Experiments:
[1] = tested on: K562 cells; experiment: Cell growth, CellTiter-Glo Luminescent Cell Viability Assay, K562; type: cell-based; details: Homo sapiens, 72 h incubation, read-out: IC50 antiproliferative assay K562
Text: (§1) CellTiter-Glo® Luminescent Cell Viability Assay (Promega) is a homogeneous method of determining the number of viable cells in culture based on quantitation of the present ATP, which indicates the presence of metabolically active cells. The homogeneous assay procedure involves addition of a single reagent (CellTiter-Glo® Reagent) directly to the cells, which leads to cell lysis and generation of a luminescent signal proportional to the amount of the ATP and the number of cells present in culture. The assay relies on the properties of a proprietary thermostable luciferase (Ultra-Glo® recombinant luciferase), which generates a luminescent signal.
(§2) K562, A549 and HCT-116 cells, in exponential growth, were incubated for 72 h with different concentrations of the inhibitors. After 72 h, a volume of CellTiter-Glo® Reagent equal to the volume of cell culture medium was added. The content was mixed for 2 min to induce cell lysis. The luminescence was recorded after further 10 min at RT in order to obtain a stabilized luminescent signal.
(§3) The IC50 was calculated using GraphPad Software.
(§4) IC50 results were allocated to one of 3 ranges as follows: Range A: IC50≦1.0 μM; Range B: from 1.0 to 3.0 μM; Range C: IC50≧3.0 μM.

[2] = tested on: HDAC (nuclear fraction of Hela cells); experiment: Assay of enzyme inhibition of HDAC (BIOMOL Kit); type: biochemical; details: substrate 200 μM, 15 min at RT
Description: 2.2 Assay of Enzyme Inhibition of HDAC
The in-vitro activity of HDAC inhibitors was assayed using a BIOMOL Kit, according to the instructions from the manufacturer (Biomolecular Research Laborator). 15 μl of 30× diluted nuclear fraction of Hela cells, was diluted to 50 μl with the assay buffer containing the HDAC inhibitor and the substrate (lysine with acetylated amino group on the side chain) at a concentration of 200 μM. The samples were incubated for 15 min at RT and then exposed to a developer (10 min at RT). In this last step a fluorophore was produced, whose fluorescence was measured using an excitation wavelength of 355 nm and an emission at 460 nm. The IC50 was calculated using GraphPad Software.

[3] = tested on: A549 cells; experiment: Cell growth, CellTiter-Glo Luminescent Cell Viability Assay, A549; type: cell-based; details: Homo sapiens, 72 h incubation, read-out: IC50 antiproliferative assay A549
Text: as §1, §2, §3, §4

[4] = tested on: HCT-116 cells; experiment: Cell growth, CellTiter-Glo Luminescent Cell Viability Assay, HCT-116; type: cell-based; details: Homo sapiens, HCT116 cells, 72 h incubation, read-out: IC50 antiproliferative assay HCT116
Text: as §1, §2, §3, §4

## CNc1ccc(CCN2CCC3(CC2)CC(=O)c2cc(/C=C/C(=O)NO)ccc2O3)cc1 [Example 63, (E)-3-{1′-[2-(4-Methylamino-phenyl)-ethyl]-4-oxo-spiro[chromane-2,4′-piperidine]-6-yl}-N-hydroxy-acrylamide]
[1]
  IC50: ≤ 1 µM
[2]
  IC50: < 0.1 µM
[3]
  IC50: ≤ 1 µM
[4]
  IC50: ≤ 1 µM

## CN1CCC2(CC1)Oc1ccc(/C=C/C(=O)NO)cc1C(=O)N2Cc1ccccc1 [Example 81, (E)-3-{1′-Methyl-3,4-dihydro-3-benzyl-4-oxo-spiro[2H-(1,3)-benzoxazine-2,4′-piperidin]-6-yl}-N-hydroxy-acrylamide]
[1]
  IC50: ≤ 1 µM
[2]
  IC50: 0.1 to 1 µM
[3]
  IC50: ≤ 1 µM
[4]
  IC50: ≤ 1 µM

## COc1ccccc1CN1CCC2(CC1)CC(=O)c1cc(/C=C/C(=O)NO)ccc1O2 [Example 31, (E)-3-{1′-(2-Methoxy-benzyl)-4-oxo-spiro[chromane-2,4′-piperidine]-6-yl}-N-hydroxy-acrylamide]
[1]
  IC50: ≤ 1 µM
[2]
  IC50: 0.1 to 1 µM
[3]
  IC50: ≤ 1 µM
[4]
  IC50: ≤ 1 µM

## Cc1cccc(CN2CCC3(CC2)CC(=O)c2cc(/C=C/C(=O)NO)ccc2O3)c1 [Example 29, (E)-3-{1′-(3-Methyl-benzyl)-4-oxo-spiro[chromane-2,4′-piperidine]-6-yl}-N-hydroxy-acrylamide]
[1]
  IC50: ≤ 1 µM
[2]
  IC50: 0.1 to 1 µM
[3]
  IC50: 1 to 3 µM
[4]
  IC50: ≤ 1 µM

## CC(=O)NC1CC2(CCN(Cc3ccccc3)CC2)Oc2ccc(/C=C/C(=O)NO)cc21 (stereo not shown) [Example 16, (E)-3-{1′-Benzyl-4-acetylamino-spiro[chromane-2,4′-piperidine]-6-yl}-N-hydroxy-acrylamide]
[1]
  IC50: ≥ 3 µM
[2]
  IC50: > 1 µM
[3]
  IC50: ≥ 3 µM
[4]
  IC50: ≥ 3 µM

## O=C(/C=C/c1ccc2c(c1)C(=O)CC1(CCN(c3ccccc3)CC1)O2)NO [Example 7, (E)-3-{1′-Phenyl-4-oxo-spiro[chromane-2,4′-piperidine]-6-yl}-N-hydroxy-acrylamide]
[1]
  IC50: ≤ 1 µM
[2]
  IC50: 0.1 to 1 µM
[3]
  IC50: 1 to 3 µM
[4]
  IC50: 1 to 3 µM

## CC(=O)N1CCC2(CC1)CC(=O)c1cc(/C=C/C(=O)NO)ccc1O2 [Example 3, (E)-3-{1′-Acetyl-4-oxo-spiro[chromane-2,4′-piperidine]-6-yl}-N-hydroxy-acrylamide]
[1]
  IC50: ≥ 3 µM
[2]
  IC50: 0.1 to 1 µM
[3]
  IC50: ≥ 3 µM
[4]
  IC50: ≥ 3 µM

## O=C(/C=C/c1ccc2c(c1)C(=O)CC1(CCN(Cc3cccc(Cl)c3)CC1)O2)NO [Example 38, (E)-3-{1′-(3-Chloro-benzyl)-4-oxo-spiro[chromane-2,4′-piperidine]-6-yl}-N-hydroxy-acrylamide]
[1]
  IC50: ≤ 1 µM
[2]
  IC50: 0.1 to 1 µM
[3]
  IC50: 1 to 3 µM
[4]
  IC50: 1 to 3 µM

## CCNC(=O)N1CCC2(CC1)CC(=O)c1cc(/C=C/C(=O)NO)ccc1O2 [Example 46, (E)-3-{1′-Ethylcarbamoyl-4-oxo-spiro[chromane-2,4′-piperidine]-6-yl}-N-hydroxy-acrylamide]
[1]
  IC50: ≥ 3 µM
[2]
  IC50: 0.1 to 1 µM
[3]
  IC50: ≥ 3 µM
[4]
  IC50: ≥ 3 µM

## CC(C)N1CCC2(CC1)CC(=O)c1cc(/C=C/C(=O)NO)ccc1O2 [Example 69, (E)-3-{1′-Isopropyl-4-oxo-spiro[chromane-2,4′-piperidine]-6-yl}-N-hydroxy-acrylamide]
[1]
  IC50: ≤ 1 µM
[2]
  IC50: 0.1 to 1 µM
[3]
  IC50: ≤ 1 µM
[4]
  IC50: ≤ 1 µM

## O=C(/C=C/c1ccc2c(c1)C(=O)C1(CCN(Cc3ccccc3)CC1)O2)NO [Example 21, (E)-3-{1′-Benzyl-3-oxo-spiro[benzofuran-2(3H), 4′-piperidin]-5-yl}-N-hydroxy-acrylamide]
[1]
  IC50: ≥ 3 µM
[2]
  IC50: 0.1 to 1 µM
[3]
  IC50: ≥ 3 µM
[4]
  IC50: ≥ 3 µM

## Cn1c(CN2CCC3(CC2)CC(=O)c2cc(/C=C/C(=O)NO)ccc2O3)cc2ccccc21 [Example 64, (E)-3-{1′-(1-Methyl-1H-indol-2-ylmethyl)-4-oxo-spiro[chromane-2,4′-piperidine]-6-yl}-N-hydroxy-acrylamide]
[1]
  IC50: 1 to 3 µM
[2]
  IC50: 0.1 to 1 µM
[3]
  IC50: 1 to 3 µM
[4]
  IC50: 1 to 3 µM

## O=C(/C=C/c1ccc2c(c1)C(=O)NC1(CCN(Cc3ccc(F)cc3)CC1)O2)NO [Example 74, (E)-3-{1′-(4-Fluoro-benzyl)-3,4-dihydro-4-oxo-spiro[2H-(1,3)-benzoxazine-2,4′-piperidin]-6-yl}-N-hydroxy-acrylamide]
[1]
  IC50: ≤ 1 µM
[2]
  IC50: 0.1 to 1 µM
[3]
  IC50: 1 to 3 µM
[4]
  IC50: ≤ 1 µM

## CCOC(=O)N1CCC2(CC1)CC(=O)c1ccc(/C=C/C(=O)NO)cc1O2 [Example 12, (E)-3-{1′-Ethyloxycarbonyl-4-oxo-spiro[chromane-2,4′-piperidine]-7-yl}-N-hydroxy-acrylamide]
[1]
  IC50: 1 to 3 µM
[2]
  IC50: 0.1 to 1 µM
[3]
  IC50: 1 to 3 µM
[4]
  IC50: ≥ 3 µM

## O=C(/C=C/c1ccc2c(c1)OC1(CCN(Cc3ccccc3)CC1)CC2=O)NO [Example 9, (E)-3-{1′-Benzyl-4-oxo-spiro[chromane-2,4′-piperidine]-7-yl}-N-hydroxy-acrylamide]
[1]
  IC50: ≥ 3 µM
[2]
  IC50: > 1 µM
[3]
  IC50: ≥ 3 µM
[4]
  IC50: ≥ 3 µM

## O=C(/C=C/c1ccc2c(c1)C(=O)CC1(CCN(Cc3ccccc3Cl)CC1)O2)NO [Example 37, (E)-3-{1′-(2-Chloro-benzyl)-4-oxo-spiro[chromane-2,4′-piperidine]-6-yl}-N-hydroxy-acrylamide]
[1]
  IC50: 1 to 3 µM
[2]
  IC50: 0.1 to 1 µM
[3]
  IC50: 1 to 3 µM
[4]
  IC50: 1 to 3 µM

## O=C(/C=C/c1ccc2c(c1)C(=O)C1(CCN(C(=O)c3ccccc3)CC1)O2)NO [Example 23, (E)-3-{1′-Benzoyl-3-oxo-spiro[benzofuran-2(3H), 4′-piperidin]-5-yl}-N-hydroxy-acrylamide]
[1]
  IC50: ≥ 3 µM
[2]
  IC50: > 1 µM
[3]
  IC50: ≥ 3 µM
[4]
  IC50: ≥ 3 µM

## O=C(/C=C/c1ccc2c(c1)C(=O)CC1(CCN(c3ncccn3)CC1)O2)NO [Example 27, (E)-3-{1′-Pyrimidin-2-yl-4-oxo-spiro[chromane-2,4′-piperidine]-6-yl}-N-hydroxy-acrylamide]
[1]
  IC50: ≥ 3 µM
[2]
  IC50: 0.1 to 1 µM
[3]
  IC50: ≥ 3 µM
[4]
  IC50: 1 to 3 µM

## O=C(/C=C/c1ccc2c(c1)C(=O)CC1(CCNCC1)O2)NO [Example 1, (E)-3-{4-oxo-spiro[chromane-2,4′-piperidine]-6-yl}-N-hydroxy-acrylamide]
[1]
  IC50: ≥ 3 µM
[2]
  IC50: < 0.1 µM
[3]
  IC50: 1 to 3 µM
[4]
  IC50: 1 to 3 µM

## O=C(/C=C/c1ccc2c(c1)C(=O)CC1(CCN(Cc3cccnc3)CC1)O2)NO [Example 41, (E)-3-{1′-(Pyridin-3-ylmethyl)-4-oxo-spiro[chromane-2,4′-piperidine]-6-yl}-N-hydroxy-acrylamide]
[1]
  IC50: 1 to 3 µM
[2]
  IC50: 0.1 to 1 µM
[3]
  IC50: 1 to 3 µM
[4]
  IC50: ≤ 1 µM

## O=C(/C=C/c1ccc2c(c1)C(=O)CC1(CCN(CCc3ccccc3F)CC1)O2)NO [Example 59, (E)-3-{1′-[2-(2-Fluoro-phenyl)-ethyl]-4-oxo-spiro[chromane-2,4′-piperidine]-6-yl}-N-hydroxy-acrylamide]
[1]
  IC50: ≤ 1 µM
[2]
  IC50: 0.1 to 1 µM
[3]
  IC50: ≤ 1 µM
[4]
  IC50: ≤ 1 µM

## O=C(/C=C/c1ccc2c(c1)C(=O)NC1(CCNCC1)O2)NO [Example 72, (E)-3-{3,4-Dihydro-4-oxo-spiro[2H-(1,3)-benzoxazine-2,4′-piperidin]-6-yl}-N-hydroxy-acrylamide]
[1]
  IC50: ≥ 3 µM
[2]
  IC50: < 0.1 µM
[3]
  IC50: ≥ 3 µM
[4]
  IC50: ≥ 3 µM
